Assay results reported in US20260373248A1, “DEGRADABLE PEPTOIDS” (Medici Therapeutics, Inc., priority 2023, published 2026).
Non-standard residues stand in square brackets, D forms with d. Residues, ends and D or L forms follow the SMILES beside them. *: point of attachment. N(3-lauroyloxypropyl)Gly = CCCCCCCCCCCC(=O)OCCCNCC(=O)O; N(2-decanoyloxyethyl)Gly = CCCCCCCCCC(=O)OCCNCC(=O)O; N(3-imidazol-1-ylpropyl)Gly = O=C(O)CNCCCn1ccnc1; Gly(N-3-morpholinopropyl) = O=C(O)CNCCCN1CCOCC1; N(2-ethylhexyl)Gly = CCCCC(CC)CNCC(=O)O; N(CH(CH2OH)2)Gly = O=C(O)CNC(CO)CO; NHexGly = CCCCCCNCC(=O)O; For = O=C*

Key:
[1] = Delivery vehicle size and polydispersity by dynamic light scattering; assay type: physicochemical
How it was run: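 LNPs made by microfluidic mixing of ethanolic peptoid/DSPC/cholesterol/DMG-PEG2000 (20:1.79:7.16:1.84 by weight) with mRNA in 10 mM citrate pH 5.0 at 1:3 by volume, then dialyzed overnight at 4 °C against tris-sucrose pH 7.4. Size and PDI read by dynamic light scattering in PBS.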

firefly luciferase = experiment: In vivo firefly luciferase expression after intravenous injection of fLuc mRNA delivery vehicles (IVIS imaging); parameters: species or system female Balb/c mice; details: for Total Flux: mice, 2.5 ug fLuc mRNA intravenously, 6 hours post-injection; for Total Flux (luciferase expression): fLuc mRNA, intravenous, Balb/c mice
How it was run: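 Female Balb/c mice (6-8 weeks) given 2.5 ug fLuc mRNA in Nutshells IV. At 6 hours, IP D-luciferin (30 mg/mL, 10 μL/g) under isoflurane; IVIS imaging 10 minutes later, then harvested organs imaged ex vivo. Read-out: total photon flux in regions of interest.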

[2] = Peptoid quantity remaining in liver by HPLC-TOF mass spectrometry; assay type: in vivo; details: liver homogenate
How it was run: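 Whole liver weighed; 20 mg tissue bead-homogenized in IPA/MeOH (8/2) with internal standard, centrifuged, supernatant run on BEH C8 HPLC-TOF MS. Peptoid concentration derived from linear calibration curve (0.2-50 μg/g) prepared in spiked untreated liver.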

hEPO = experiment: Quantification of hEPO in serum after IV injection of mRNA (Human EPO ELISA); assay type: in vivo; details: Balb/c mice, 2.5 μg mRNA IV, serum after 6 hours
How it was run: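 Balb/c mice received 2.5 μg mRNA encoding human EPO by IV injection; serum was collected after 6 hours. hEPO was measured by sandwich ELISA (biotin-conjugate, streptavidin-HRP, TMB, A450) against kit standards (mIU/mL) and an external standard (ng/mL), with values interpolated and corrected for dilution.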

mRNA = mRNA encapsulation (modified Quant-iT RiboGreen assay); assay type: physicochemical; details: for mean percent encapsulation of RNA: RiboGreen, without vs with Triton X-100; for % Encapsulation: mRNA
How it was run: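 Peptoid nanoparticles were incubated with Triton X-100 for 10 min to release entrapped mRNA, then mixed with RiboGreen reagent and read by fluorescence (ex 485 nm/em 530 nm). Percent encapsulation was derived from the ratio of fluorescence without versus with Triton X-100.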

luciferase = experiment: Luciferase expression after local (intramuscular or subcutaneous) administration of mRNA; assay type: in vivo; details: mRNA 0.01 mpk, 6 hours; for IM Flux: intramuscular; for SC Flux: subcutaneous
How it was run: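 Female Balb/c mice (6-8 weeks) received fLuc mRNA in aminolipidated peptoid Nutshells at 0.01 mpk subcutaneously or intramuscularly, or 0.1 mpk intratumorally. At 6 hours, anesthetized mice were given D-luciferin IP and imaged 10 minutes later; harvested organs were also imaged and total photon flux quantified in regions of interest.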

[3] = DLS in PBS, peptoid:DSPC:Cholesterol:DMG-PEG2000 weight ratio 20:1.79:7.16:1.84, mRNA

| SMILES | PDI [1, 3] | Particle Size [1, 3] | Total Flux (firefly luciferase) | % of injected dose remaining in liver [2] | hEPO (hEPO) | mean percent encapsulation of RNA (mRNA) | IM Flux (luciferase) | SC Flux (luciferase) | also measured |
| --- | --- | --- | --- | --- | --- | --- | --- | --- | --- |
| CCCCCCCCCC(=O)OCCN(CC(=O)N(CCOC(=O)CCCCCCCCC)CC(=O)N(CC(=O)N(CCOC(=O)CCCCCCCCC)CC(=O)N(CCOC(=O)CCCCCCCCC)CC(=O)N(CC(N)=O)CC(CC)CCCC)CC(CC)CCCC)C(=O)CNCCCn1ccnc1 (stereo not shown) [Compound 79] (H-[N(3-imidazol-1-ylpropyl)Gly][N(2-decanoyloxyethyl)Gly][N(2-decanoyloxyethyl)Gly][N(2-ethylhexyl)Gly][N(2-decanoyloxyethyl)Gly][N(2-decanoyloxyethyl)Gly][N(2-ethylhexyl)Gly]-NH2) | 0.108 | 61.0 nm | 1.60E+09 p/s | 19.72% | 320 ng/mL | 97.5% | 1.31E+08 p/s | 1.59E+08 p/s | – |
| CCCCCCCCCC(=O)OCCN(CC(=O)N(CCOC(=O)CCCCCCCCC)CC(=O)N(CC(=O)N(CCOC(=O)CCCCCCCCC)CC(=O)N(CCOC(=O)CCCCCCCCC)CC(=O)N(CC(N)=O)CC(CC)CCCC)CC(CC)CCCC)C(=O)CNC(CO)CO (stereo not shown) [Compound 16] (H-[N(CH(CH2OH)2)Gly][N(2-decanoyloxyethyl)Gly][N(2-decanoyloxyethyl)Gly][N(2-ethylhexyl)Gly][N(2-decanoyloxyethyl)Gly][N(2-decanoyloxyethyl)Gly][N(2-ethylhexyl)Gly]-NH2) | 0.135 | 90.0 nm | 9.70E+09 p/s | 6.65% | 422 ng/mL | 55.7% | 3.09E+08 p/s | 5.62E+08 p/s | Particle Size ([1]; formulation recipe F2): 71.0 nm; Particle Size ([1]; formulation recipe R1): 59.8 nm; Particle Size ([1]; formulation recipe R5): 57.2 nm; Particle Size ([1]; formulation recipe R7): 69.1 nm; Particle Size ([1]; formulation recipe R9): 59.0 nm; Total Flux (luciferase expression) (firefly luciferase; formulation recipe F2): 2.35E+09 p/s; Total Flux (luciferase expression) (firefly luciferase; formulation recipe R1): 5.73E+08 p/s; Total Flux (luciferase expression) (firefly luciferase; formulation recipe R5): 6.72E+08 p/s; Total Flux (luciferase expression) (firefly luciferase; formulation recipe R7): 1.81E+09 p/s; Total Flux (luciferase expression) (firefly luciferase; formulation recipe R9): 1.14E+09 p/s; % Encapsulation (mRNA; formulation recipe F2): 90.8%; % Encapsulation (mRNA; formulation recipe R1): 89.4%; % Encapsulation (mRNA; formulation recipe R5): 92.2%; % Encapsulation (mRNA; formulation recipe R7): 87.8%; % Encapsulation (mRNA; formulation recipe R9): 93.3% |
| CCCCCCCCCCCC(=O)OCCCN(CC(=O)N(CC(=O)N(CCCCCC)CC(=O)N(CCCOC(=O)CCCCCCCCCCC)CC(=O)N(CC(=O)N(CCCCCC)CC(N)=O)CC(CC)CCCC)CC(CC)CCCC)C(=O)CN(C=O)CCCN1CCOCC1 (stereo not shown) [Compound 70] (For-[Gly(N-3-morpholinopropyl)][N(3-lauroyloxypropyl)Gly][N(2-ethylhexyl)Gly][NHexGly][N(3-lauroyloxypropyl)Gly][N(2-ethylhexyl)Gly][NHexGly]-NH2) | 0.082 | 101.3 nm | 1.04E+09 p/s | 8.06% | 201 ng/mL | 77.2% | 4.46E+06 p/s | 2.02E+08 p/s | – |
| CCCCCCCCCCCC(=O)OCCN(CC(=O)N(CCOC(=O)CCCCCCCCCCC)CC(=O)N(CC(=O)N(CCOC(=O)CCCCCCCCCCC)CC(=O)N(CCOC(=O)CCCCCCCCCCC)CC(=O)N(CC(N)=O)CC(CC)CCCC)CC(CC)CCCC)C(=O)CN(C=O)CCCN1CCOCC1 (stereo not shown) [Compound 65] | 0.248 | 91.4 nm | 8.68E+08 p/s | 14.67% | 77.7 ng/mL | 39.1% | 8.99E+08 p/s | 2.00E+08 p/s | – |
| CCCCCCCCCC(=O)OCCN(CC(N)=O)C(=O)CN(CC(CC)CCCC)C(=O)CN(CCOC(=O)CCCCCCCCC)C(=O)CN(CCOC(=O)CCCCCCCCC)C(=O)CN(CC(CC)CCCC)C(=O)CN(CCOC(=O)CCCCCCCCC)C(=O)CNC(CO)CO (stereo not shown) [Compound 56] (H-[N(CH(CH2OH)2)Gly][N(2-decanoyloxyethyl)Gly][N(2-ethylhexyl)Gly][N(2-decanoyloxyethyl)Gly][N(2-decanoyloxyethyl)Gly][N(2-ethylhexyl)Gly][N(2-decanoyloxyethyl)Gly]-NH2) | 0.234 | 102.4 nm | 2.42E+09 p/s | 24.83% | 551 ng/mL | 23.8% | 5.78E+07 p/s | 8.24E+07 p/s | Particle Size ([1]; formulation recipe O3): 57.9 nm; Particle Size ([1]; formulation recipe O5): 62.4 nm; Total Flux (luciferase expression) (firefly luciferase; formulation recipe O3): 5.66E+08 p/s; Total Flux (luciferase expression) (firefly luciferase; formulation recipe O5): 6.97E+08 p/s; % Encapsulation (mRNA; formulation recipe O3): 86.9%; % Encapsulation (mRNA; formulation recipe O5): 89.6% |
